Source: patent publication US12077503B2, “Substituted cyclic amides and their use as herbicides” (FMC CORPORATION, priority 2015, dated 2024)

Key:
Type in all cases: in vivo
Kochia (Kochia scoparia) [1] = assay: Test A preemergence; details: Bassia scoparia, pre-emergence, 240 h, 0 to 100 scale where 0 is no effect and 100 is complete control, read-out: Kochia plant response rating
Summary of the method: (§1)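 Treatment is preemergence as a directed soil spray after planting, or postemergence at the one- to two-leaf stage, with test chemical in a non-phytotoxic solvent mixture plus surfactant. Plants stay in the greenhouse about 10 d before visual injury scoring on a 0 to 100 scale versus untreated controls.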

[2] = system: barnyardgrass (Echinochloa crus-galli); assay: Test A preemergence; details: Echinochloa crus-galli, pre-emergence, 240 h, 0 to 100 scale where 0 is no effect and 100 is complete control, read-out: Barnyardgrass plant response rating
Summary of the method: as §1

[3] = system: giant foxtail (Setaria faberii); assay: Test A preemergence; details: Setaria faberi, pre-emergence, 240 h, 0 to 100 scale where 0 is no effect and 100 is complete control, read-out: Foxtail, Giant plant response rating
Summary of the method: as §1

[4] = system: pigweed (Amaranthus retroflexus); assay: Test A preemergence; details: Amaranthus retroflexus, pre-emergence, 240 h, 0 to 100 scale where 0 is no effect and 100 is complete control, read-out: Pigweed plant response rating
[5] = system: ragweed (common ragweed, Ambrosia elatior); assay: Test A preemergence; details: Ambrosia artemisiifolia, pre-emergence, 240 h, 0 to 100 scale where 0 is no effect and 100 is complete control, read-out: Ragweed plant response rating
Summary of the method: as §1

[6] = system: ryegrass, Italian (Italian ryegrass, Lolium multiflorum); assay: Test A preemergence; details: Lolium multiflorum, pre-emergence, 240 h, 0 to 100 scale where 0 is no effect and 100 is complete control, read-out: Ryegrass, Italian plant response rating
Summary of the method: as §1

[7] = system: Galium (catchweed bedstraw, Galium aparine); assay: Test A postemergence; details: Galium, post-emergence, 240 h
Summary of the method: as §1

Kochia (Kochia scoparia) [8] = assay: Test A postemergence; details: Bassia scoparia, post-emergence, 240 h
Summary of the method: as §1

[9] = system: barnyardgrass (Echinochloa crus-galli); assay: Test A postemergence; details: Echinochloa crus-galli, post-emergence, 240 h
Summary of the method: as §1

[10] = system: blackgrass (Alopecurus myosuroides); assay: Test A postemergence; details: Alopecurus myosuroides, post-emergence, 240 h
Summary of the method: as §1

corn (Zea mays) = assay: Test A postemergence; details: Zea mays, post-emergence, 240 h
Summary of the method: as §1

[11] = system: giant foxtail (Setaria faberii); assay: Test A postemergence; details: Setaria faberi, post-emergence, 240 h
Summary of the method: as §1

[12] = system: pigweed (Amaranthus retroflexus); assay: Test A postemergence; details: Amaranthus retroflexus, post-emergence, 240 h
Summary of the method: as §1

[13] = system: ragweed (common ragweed, Ambrosia elatior); assay: Test A postemergence; details: Ambrosia artemisiifolia, post-emergence, 240 h
Summary of the method: as §1

[14] = system: ryegrass, Italian (Italian ryegrass, Lolium multiflorum); assay: Test A postemergence; details: Lolium multiflorum, post-emergence, 240 h
Summary of the method: as §1

[15] = system: wheat (Triticum aestivum); assay: Test A postemergence; details: Triticum aestivum, post-emergence, 240 h
Summary of the method: as §1

[16] = system: barnyardgrass (Echinochloa crus-galli); assay: Test B flooded paddy test; details: Echinochloa crus-galli, 250 g ai/ha, Flood; 0 to 100 scale where 0 is no effect and 100 is complete control; read-out: Barnyardgrass plant response rating
Summary of the method: (§2)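 Response scored visually against untreated controls, 0 = no effect and 100 = complete control, 13–15 d after treatment in the greenhouse. Compounds added to paddy water held 3 cm above soil surface. Treatment given at 2-leaf stage.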

[17] = system: ducksalad (Heteranthera limosa); assay: Test B flooded paddy test; details: Heteranthera limosa, 250 g ai/ha, Flood; 0 to 100 scale where 0 is no effect and 100 is complete control; read-out: Ducksalad plant response rating
Summary of the method: as §2

rice (Oryra sativa) = assay: Test B flooded paddy test; details: Oryza sativa, 250 g ai/ha, Flood; 0 to 100 scale where 0 is no effect and 100 is complete control; read-out: Rice plant response rating
Summary of the method: as §2

[18] = system: sedge, umbrella (small-flower umbrella sedge, Cyperus difformis); assay: Test B flooded paddy test; details: Cyperus difformis, 250 g ai/ha, Flood; 0 to 100 scale where 0 is no effect and 100 is complete control; read-out: Sedge, Umbrella plant response rating
Summary of the method: as §2

[19] = 125 g ai/ha, preemergence, approx. 10 d

`CN1CC(c2cccc(C(F)(F)F)c2)C(C(=O)Nc2ccccc2C(C)(C)O)C1=O` (stereo not drawn) [Compound 1146] gave a pest or weed control at 31 g/ha (Kochia (Kochia scoparia) [1]; 31 g ai/ha, Preemergence) of 0%, a pest or weed control at 125 g/ha (Kochia (Kochia scoparia) [1]; [19]) of 0% and a pest or weed control at 31 g/ha ([2]; 31 g ai/ha, Preemergence) of 50%. It also gave a pest or weed control at 125 g/ha [2, 19] of 70%, a pest or weed control at 31 g/ha ([3]; 31 g ai/ha, Preemergence) of 20% and a pest or weed control at 125 g/ha [3, 19] of 80%. It also gave a pest or weed control at 31 g/ha ([4]; 31 g ai/ha, Preemergence) of 0%, a pest or weed control at 125 g/ha [4, 19] of 0% and a pest or weed control at 31 g/ha ([5]; 31 g ai/ha, Preemergence) of 0%. It also gave a pest or weed control at 125 g/ha [5, 19] of 0%, a pest or weed control at 31 g/ha ([6]; 31 g ai/ha, Preemergence) of 0% and a pest or weed control at 125 g/ha [6, 19] of 30%. The pest or weed control at 125 g/ha ([7]; 125 g ai/ha, postemergence, visual injury on 0 to 100 scale (0 no effect, 100 complete control), approx. 10 d, read-out: Galium plant response rating) was 0%, the pest or weed control at 31 g/ha ([7]; Postemergence, 31 g ai/ha, visual injury after approx. 10 d, 0 to 100 scale, 0 no effect, 100 complete control, read-out: Plant response rating, Galium) was 0% and the pest or weed control at 125 g/ha (Kochia (Kochia scoparia) [8]; 125 g ai/ha, postemergence, visual injury on 0 to 100 scale (0 no effect, 100 complete control), approx. 10 d, read-out: Kochia plant response rating) was 0%. The pest or weed control at 31 g/ha (Kochia (Kochia scoparia) [8]; Postemergence, 31 g ai/ha, visual injury after approx. 10 d, 0 to 100 scale, 0 no effect, 100 complete control, read-out: Plant response rating, Kochia) was 0%, the pest or weed control at 125 g/ha ([9]; 125 g ai/ha, postemergence, visual injury on 0 to 100 scale (0 no effect, 100 complete control), approx. 10 d, read-out: Barnyardgrass plant response rating) was 40% and the pest or weed control at 31 g/ha ([9]; Postemergence, 31 g ai/ha, visual injury after approx. 10 d, 0 to 100 scale, 0 no effect, 100 complete control, read-out: Plant response rating, Barnyardgrass) was 0%. For the same compound, the pest or weed control at 125 g/ha ([10]; 125 g ai/ha, postemergence, visual injury on 0 to 100 scale (0 no effect, 100 complete control), approx. 10 d, read-out: Blackgrass plant response rating) was 0%, the pest or weed control at 31 g/ha ([10]; Postemergence, 31 g ai/ha, visual injury after approx. 10 d, 0 to 100 scale, 0 no effect, 100 complete control, read-out: Plant response rating, Blackgrass) was 0% and the plant injury at 125 g/ha (corn (Zea mays); 125 g ai/ha, postemergence, visual injury on 0 to 100 scale (0 no effect, 100 complete control), approx. 10 d, read-out: Corn plant response rating) was 30%. For the same compound, the Corn plant response rating (crop injury, 0 = no effect, 100 = complete kill) at 31 g/ha (corn (Zea mays); Postemergence, 31 g ai/ha, visual injury after approx. 10 d, 0 to 100 scale, 0 no effect, 100 complete control) was 0%, the pest or weed control at 125 g/ha ([11]; 125 g ai/ha, postemergence, visual injury on 0 to 100 scale (0 no effect, 100 complete control), approx. 10 d, read-out: Foxtail, Giant plant response rating) was 20% and the pest or weed control at 31 g/ha ([11]; Postemergence, 31 g ai/ha, visual injury after approx. 10 d, 0 to 100 scale, 0 no effect, 100 complete control, read-out: Plant response rating, Foxtail, Giant) was 0%. For the same compound, the pest or weed control at 125 g/ha ([12]; 125 g ai/ha, postemergence, visual injury vs untreated controls after approx. 10 d, 0 = no effect, 100 = complete control, read-out: Pigweed plant response rating (0 to 100 scale)) was 0%, the pest or weed control at 31 g/ha ([12]; Postemergence, 31 g ai/ha, visual injury after approx. 10 d, 0 to 100 scale, 0 no effect, 100 complete control, read-out: Plant response rating, Pigweed) was 0% and the pest or weed control at 125 g/ha ([13]; 125 g ai/ha, postemergence, visual injury vs untreated controls after approx. 10 d, 0 = no effect, 100 = complete control, read-out: Ragweed plant response rating (0 to 100 scale)) was 0%. For the same compound, the pest or weed control at 31 g/ha ([13]; Postemergence, 31 g ai/ha, visual injury after approx. 10 d, 0 to 100 scale, 0 no effect, 100 complete control, read-out: Plant response rating, Ragweed) was 0%, the pest or weed control at 125 g/ha ([14]; 125 g ai/ha, postemergence, visual injury vs untreated controls after approx. 10 d, 0 = no effect, 100 = complete control, read-out: Ryegrass, Italian plant response rating (0 to 100 scale)) was 0% and the pest or weed control at 31 g/ha ([14]; Postemergence, 31 g ai/ha, visual injury after approx. 10 d, 0 to 100 scale, 0 no effect, 100 complete control, read-out: Plant response rating, Ryegrass, Italian) was 0%. The plant injury at 125 g/ha ([15]; 125 g ai/ha, postemergence, visual injury vs untreated controls after approx. 10 d, 0 = no effect, 100 = complete control, read-out: Wheat plant response rating (0 to 100 scale)) was 0%, the plant injury at 31 g/ha ([15]; Postemergence, 31 g ai/ha, visual injury after approx. 10 d, 0 to 100 scale, 0 no effect, 100 complete control, read-out: Plant response rating, Wheat) was 0% and the pest or weed control at 250 g/ha [16] was 45%. It also gave a pest or weed control at 250 g/ha [17] of 0%, a pest or weed control at 250 g/ha (rice (Oryra sativa)) of 0% and a pest or weed control at 250 g/ha [18] of 50%.
